What was measured:
Experiment in all cases: KINOMEscan competition binding
Conditions in all cases: compound 10.0 µM
CDK7 (human) = CDK7 (human) (UniProt P50613)
PKN1 (human) = PKN1 (human) (UniProt Q16512)
MAP3K4 (human) = MAP3K4 (human) (UniProt Q9Y6R4)
STK32C (human) = STK32C (human) (UniProt Q86UX6)
PAK4 (human) = PAK4 (human) (UniProt O96013)
EPHA5 (human) = EPHA5 (human) (UniProt P54756)
CHUK (human) = CHUK (human) (UniProt O15111)
HCK (human) = HCK (human) (UniProt P08631)
EPHB6 (human) = EPHB6 (human) (UniProt O15197)
NEK9 (human) = NEK9 (human) (UniProt Q8TD19)
PKN3 (M.tuberculosis) = PKN3 (M.tuberculosis) (UniProt Q6P5Z2)
Chain of PKN3 (M.tuberculosis) (Q6P5Z2 whole entry, looked up): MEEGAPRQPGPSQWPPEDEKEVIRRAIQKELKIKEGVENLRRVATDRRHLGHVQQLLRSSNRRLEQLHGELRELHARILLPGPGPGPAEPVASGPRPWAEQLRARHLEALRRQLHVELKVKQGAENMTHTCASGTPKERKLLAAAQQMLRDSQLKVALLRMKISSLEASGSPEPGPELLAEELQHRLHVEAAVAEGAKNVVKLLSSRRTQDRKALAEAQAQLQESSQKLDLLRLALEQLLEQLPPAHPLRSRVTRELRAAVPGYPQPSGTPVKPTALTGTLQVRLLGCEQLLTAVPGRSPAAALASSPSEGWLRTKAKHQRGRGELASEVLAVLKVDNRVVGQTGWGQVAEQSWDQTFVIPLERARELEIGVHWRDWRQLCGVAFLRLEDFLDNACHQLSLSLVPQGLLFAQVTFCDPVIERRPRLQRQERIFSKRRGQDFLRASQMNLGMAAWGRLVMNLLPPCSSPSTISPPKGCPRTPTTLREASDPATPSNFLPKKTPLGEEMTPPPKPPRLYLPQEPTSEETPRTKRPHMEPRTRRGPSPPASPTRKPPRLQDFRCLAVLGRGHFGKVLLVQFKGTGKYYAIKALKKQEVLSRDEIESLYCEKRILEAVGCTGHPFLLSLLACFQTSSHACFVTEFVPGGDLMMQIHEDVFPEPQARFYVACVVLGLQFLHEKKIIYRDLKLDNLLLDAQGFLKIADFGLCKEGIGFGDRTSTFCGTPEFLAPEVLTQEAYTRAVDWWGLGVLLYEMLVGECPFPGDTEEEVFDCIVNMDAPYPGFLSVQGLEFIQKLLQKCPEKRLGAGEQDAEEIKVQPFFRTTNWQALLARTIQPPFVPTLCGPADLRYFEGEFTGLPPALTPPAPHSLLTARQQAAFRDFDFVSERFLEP

STK17B (human) = STK17B (human) (UniProt O94768)
CSNK1A1L (human) = CSNK1A1L (human) (UniProt Q8N752)
LRRK2 (human) = LRRK2 (human) (UniProt Q5S007)
TLK1 (human) = TLK1 (human) (UniProt Q9UKI8)
Chain of TLK1 (human) (Q9UKI8 whole entry, looked up): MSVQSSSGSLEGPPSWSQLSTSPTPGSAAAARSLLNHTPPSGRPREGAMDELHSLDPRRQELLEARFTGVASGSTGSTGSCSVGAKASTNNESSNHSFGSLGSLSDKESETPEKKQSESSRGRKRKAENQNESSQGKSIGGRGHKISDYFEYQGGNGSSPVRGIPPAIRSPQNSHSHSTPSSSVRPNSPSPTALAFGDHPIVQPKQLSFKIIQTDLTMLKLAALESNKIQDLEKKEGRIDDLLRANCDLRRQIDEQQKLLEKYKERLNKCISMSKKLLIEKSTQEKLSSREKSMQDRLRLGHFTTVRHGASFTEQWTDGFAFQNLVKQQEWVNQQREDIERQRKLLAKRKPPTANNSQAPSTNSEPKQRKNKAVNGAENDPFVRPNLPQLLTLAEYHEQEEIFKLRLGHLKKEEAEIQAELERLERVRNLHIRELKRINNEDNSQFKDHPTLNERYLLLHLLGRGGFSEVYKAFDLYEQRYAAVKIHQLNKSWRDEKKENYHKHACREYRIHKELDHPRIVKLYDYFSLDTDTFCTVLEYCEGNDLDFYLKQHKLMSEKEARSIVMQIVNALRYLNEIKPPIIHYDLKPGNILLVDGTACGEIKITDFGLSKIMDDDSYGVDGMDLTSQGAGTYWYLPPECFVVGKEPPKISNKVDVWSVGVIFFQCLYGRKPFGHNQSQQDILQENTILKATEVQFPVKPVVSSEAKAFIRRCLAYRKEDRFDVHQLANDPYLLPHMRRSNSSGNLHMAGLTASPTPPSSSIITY

ROS1 (human) = ROS1 (human) (UniProt P08922)
TNK2 (human) = TNK2 (human) (UniProt Q07912)
Chain of TNK2 (human) (Q07912 whole entry, looked up): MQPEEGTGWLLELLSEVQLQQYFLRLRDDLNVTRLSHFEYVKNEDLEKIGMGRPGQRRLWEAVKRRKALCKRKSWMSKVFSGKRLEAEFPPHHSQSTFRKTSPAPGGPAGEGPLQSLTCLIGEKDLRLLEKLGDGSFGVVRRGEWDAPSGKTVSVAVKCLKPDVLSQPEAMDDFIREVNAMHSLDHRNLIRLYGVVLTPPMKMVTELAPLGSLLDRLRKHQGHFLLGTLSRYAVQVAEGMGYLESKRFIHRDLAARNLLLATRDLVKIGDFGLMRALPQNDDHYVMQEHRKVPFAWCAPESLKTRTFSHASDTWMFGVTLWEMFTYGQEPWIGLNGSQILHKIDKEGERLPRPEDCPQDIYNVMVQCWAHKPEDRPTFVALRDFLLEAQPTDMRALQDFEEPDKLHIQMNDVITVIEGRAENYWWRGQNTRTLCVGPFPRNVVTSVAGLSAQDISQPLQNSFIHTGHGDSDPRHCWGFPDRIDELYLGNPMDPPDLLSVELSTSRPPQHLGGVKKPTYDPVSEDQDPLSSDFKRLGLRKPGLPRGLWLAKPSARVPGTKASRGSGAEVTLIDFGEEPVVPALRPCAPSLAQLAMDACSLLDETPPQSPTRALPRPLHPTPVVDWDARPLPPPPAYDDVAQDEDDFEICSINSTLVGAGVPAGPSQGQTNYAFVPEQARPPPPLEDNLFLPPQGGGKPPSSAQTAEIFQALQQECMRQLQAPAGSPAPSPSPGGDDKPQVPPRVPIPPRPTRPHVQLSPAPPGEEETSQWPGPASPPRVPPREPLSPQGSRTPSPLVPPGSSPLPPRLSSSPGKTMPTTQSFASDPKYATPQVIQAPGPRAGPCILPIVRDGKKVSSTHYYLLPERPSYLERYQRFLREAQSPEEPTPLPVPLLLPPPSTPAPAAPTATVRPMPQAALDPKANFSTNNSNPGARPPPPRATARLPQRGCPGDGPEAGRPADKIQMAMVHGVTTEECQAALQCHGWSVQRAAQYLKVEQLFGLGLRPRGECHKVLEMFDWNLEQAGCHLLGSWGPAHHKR

NTRK1 (human) = NTRK1 (human) (UniProt P04629)
ADCK4 (human) = ADCK4 (human) (UniProt Q96D53)
Chain of ADCK4 (human) (Q96D53 whole entry, looked up): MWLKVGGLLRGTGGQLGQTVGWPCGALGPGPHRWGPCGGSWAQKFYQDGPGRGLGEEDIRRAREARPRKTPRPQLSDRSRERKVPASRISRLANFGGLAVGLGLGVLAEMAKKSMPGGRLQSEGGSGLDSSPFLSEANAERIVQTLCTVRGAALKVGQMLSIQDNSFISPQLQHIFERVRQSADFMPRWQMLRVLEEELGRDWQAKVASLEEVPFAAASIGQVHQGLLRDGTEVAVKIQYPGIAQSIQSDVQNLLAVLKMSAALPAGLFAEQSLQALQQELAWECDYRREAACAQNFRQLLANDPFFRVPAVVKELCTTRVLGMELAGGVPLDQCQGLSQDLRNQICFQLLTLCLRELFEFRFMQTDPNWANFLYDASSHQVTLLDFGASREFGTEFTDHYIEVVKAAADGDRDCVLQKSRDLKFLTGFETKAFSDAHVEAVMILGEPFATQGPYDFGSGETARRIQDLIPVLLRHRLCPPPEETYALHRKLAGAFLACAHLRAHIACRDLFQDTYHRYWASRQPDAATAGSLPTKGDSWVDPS

CDK15 (human) = CDK15 (human) (UniProt Q96Q40)
NEK7 (human) = NEK7 (human) (UniProt Q8TDX7)
YES1 (human) = YES1 (human) (UniProt P07947)
Chain of YES1 (human) (P07947 whole entry, looked up): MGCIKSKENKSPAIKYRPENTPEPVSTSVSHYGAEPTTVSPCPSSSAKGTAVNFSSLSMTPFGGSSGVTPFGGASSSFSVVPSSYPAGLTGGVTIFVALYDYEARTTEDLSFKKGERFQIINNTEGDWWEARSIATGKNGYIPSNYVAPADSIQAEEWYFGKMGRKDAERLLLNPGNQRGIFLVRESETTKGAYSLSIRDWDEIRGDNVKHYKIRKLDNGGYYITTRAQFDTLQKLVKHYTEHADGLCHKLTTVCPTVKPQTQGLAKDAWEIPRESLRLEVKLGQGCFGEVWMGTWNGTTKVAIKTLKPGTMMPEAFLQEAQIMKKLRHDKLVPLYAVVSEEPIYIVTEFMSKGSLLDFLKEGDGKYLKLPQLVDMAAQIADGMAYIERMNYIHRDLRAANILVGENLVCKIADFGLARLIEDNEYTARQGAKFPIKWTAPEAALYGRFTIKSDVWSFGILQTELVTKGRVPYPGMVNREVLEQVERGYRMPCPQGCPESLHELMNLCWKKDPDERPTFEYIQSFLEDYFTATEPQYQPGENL

CSNK2A1 (human) = CSNK2A1 (human) (UniProt P68400)
PDPK1 (human) = PDPK1 (human) (UniProt O15530)
STK16 (human) = STK16 (human) (UniProt O75716)
NEK11 (human) = NEK11 (human) (UniProt Q8NG66)
RIPK2 (human) = RIPK2 (human) (UniProt O43353)
Chain of RIPK2 (human) (O43353 whole entry, looked up): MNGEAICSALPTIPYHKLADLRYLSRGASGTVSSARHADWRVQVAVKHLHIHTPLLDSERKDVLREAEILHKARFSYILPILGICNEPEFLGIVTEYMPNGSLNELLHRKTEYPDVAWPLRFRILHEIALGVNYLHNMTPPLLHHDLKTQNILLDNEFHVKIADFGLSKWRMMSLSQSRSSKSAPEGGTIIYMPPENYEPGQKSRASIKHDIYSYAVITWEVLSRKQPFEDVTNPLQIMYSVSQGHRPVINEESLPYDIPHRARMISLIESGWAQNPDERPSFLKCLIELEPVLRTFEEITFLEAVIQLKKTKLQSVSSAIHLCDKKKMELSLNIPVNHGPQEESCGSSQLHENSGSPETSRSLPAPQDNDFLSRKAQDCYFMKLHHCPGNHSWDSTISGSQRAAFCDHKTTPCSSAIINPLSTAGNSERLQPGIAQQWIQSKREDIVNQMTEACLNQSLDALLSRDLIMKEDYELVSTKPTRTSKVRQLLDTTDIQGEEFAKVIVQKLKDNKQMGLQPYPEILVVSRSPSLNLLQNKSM

FLT1 (human) = FLT1 (human) (UniProt P17948)
MST1R (human) = MST1R (human) (UniProt Q04912)
FGFR1 (human) = FGFR1 (human) (UniProt P11362)
STK38L (human) = STK38L (human) (UniProt Q9Y2H1)
SRPK3 (human) = SRPK3 (human) (UniProt Q9UPE1)
ACVR1B (human) = ACVR1B (human) (UniProt P36896)
RIPK1 (human) = RIPK1 (human) (UniProt Q13546)
NEK5 (human) = NEK5 (human) (UniProt Q6P3R8)
MKNK2 (human) = MKNK2 (human) (UniProt Q9HBH9)
YSK4 (human) = YSK4 (human) (UniProt Q56UN5)
CAMK1D (human) = CAMK1D (human) (UniProt Q8IU85)
[1] = target: JAK1 JH2 pseudokinase (human) (UniProt P23458)
GAK (human) = GAK (human) (UniProt O14976)

Chain of STK32C (human) (Q86UX6 whole entry, looked up): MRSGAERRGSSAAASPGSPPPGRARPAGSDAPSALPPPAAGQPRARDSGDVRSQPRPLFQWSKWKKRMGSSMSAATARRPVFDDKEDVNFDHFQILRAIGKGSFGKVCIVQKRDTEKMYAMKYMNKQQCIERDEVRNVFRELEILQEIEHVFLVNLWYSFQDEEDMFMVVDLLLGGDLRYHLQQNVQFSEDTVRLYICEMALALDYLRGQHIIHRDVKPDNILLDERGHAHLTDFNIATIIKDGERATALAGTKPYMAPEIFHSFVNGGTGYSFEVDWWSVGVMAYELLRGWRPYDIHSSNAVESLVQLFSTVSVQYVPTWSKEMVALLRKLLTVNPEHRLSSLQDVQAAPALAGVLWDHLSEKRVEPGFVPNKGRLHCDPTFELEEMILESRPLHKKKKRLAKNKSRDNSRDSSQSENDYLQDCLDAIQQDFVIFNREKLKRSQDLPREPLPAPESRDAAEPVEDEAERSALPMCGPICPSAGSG

Structure (SMILES)	kinase still bound, per cent of control (CDK7 (human))	kinase still bound, per cent of control (PKN1 (human))	kinase still bound, per cent of control (MAP3K4 (human))	kinase still bound, per cent of control (STK32C (human))	kinase still bound, per cent of control (PAK4 (human))	kinase still bound, per cent of control (EPHA5 (human))	kinase still bound, per cent of control (CHUK (human))	kinase still bound, per cent of control (HCK (human))	kinase still bound, per cent of control (EPHB6 (human))	kinase still bound, per cent of control (NEK9 (human))	kinase still bound, per cent of control (PKN3 (M.tuberculosis))	kinase still bound, per cent of control (STK17B (human))	kinase still bound, per cent of control (CSNK1A1L (human))	kinase still bound, per cent of control (LRRK2 (human))	kinase still bound, per cent of control (TLK1 (human))	kinase still bound, per cent of control (ROS1 (human))	kinase still bound, per cent of control (TNK2 (human))	kinase still bound, per cent of control (NTRK1 (human))	kinase still bound, per cent of control (ADCK4 (human))	kinase still bound, per cent of control (CDK15 (human))	other results
C=CC(=O)Nc1cc(-n2c(=O)ccc3cnc4ccc(-c5cn[nH]c5)cc4c32)ccc1C	3.8%	100%	100%	100%	100%	100%	100%	100%	54%	100%	12%	100%	90%	38%	100%	100%	100%	65%	86%	49%	kinase still bound, per cent of control (NEK7 (human)): 100%; kinase still bound, per cent of control (YES1 (human)): 94%; kinase still bound, per cent of control (CSNK2A1 (human)): 4.6%; kinase still bound, per cent of control (PDPK1 (human)): 100%; kinase still bound, per cent of control (STK16 (human)): 52%; kinase still bound, per cent of control (NEK11 (human)): 100%; kinase still bound, per cent of control (RIPK2 (human)): 56%; kinase still bound, per cent of control (FLT1 (human)): 100%; kinase still bound, per cent of control (MST1R (human)): 99%; kinase still bound, per cent of control (FGFR1 (human)): 80%; kinase still bound, per cent of control (STK38L (human)): 100%; kinase still bound, per cent of control (SRPK3 (human)): 68%; kinase still bound, per cent of control (ACVR1B (human)): 100%; kinase still bound, per cent of control (RIPK1 (human)): 100%; kinase still bound, per cent of control (NEK5 (human)): 100%; kinase still bound, per cent of control (MKNK2 (human)): 0.15%; kinase still bound, per cent of control (YSK4 (human)): 1.2%; kinase still bound, per cent of control (CAMK1D (human)): 86%; kinase still bound, per cent of control [1]: 34%; kinase still bound, per cent of control (GAK (human)): 18%
CNC(=O)c1cc(Oc2ccc(NC(=O)Nc3ccc(Cl)c(C(F)(F)F)c3)cc2)ccn1	4.2%	99%	98%	100%	91%	30%	81%	27%	3%	79%	100%	59%	98%	77%	100%	83%	96%	16%	100%	19%	kinase still bound, per cent of control (NEK7 (human)): 100%; kinase still bound, per cent of control (YES1 (human)): 69%; kinase still bound, per cent of control (CSNK2A1 (human)): 100%; kinase still bound, per cent of control (PDPK1 (human)): 76%; kinase still bound, per cent of control (STK16 (human)): 100%; kinase still bound, per cent of control (NEK11 (human)): 100%; kinase still bound, per cent of control (RIPK2 (human)): 18%; kinase still bound, per cent of control (FLT1 (human)): 6.6%; kinase still bound, per cent of control (MST1R (human)): 74%; kinase still bound, per cent of control (FGFR1 (human)): 5.2%; kinase still bound, per cent of control (STK38L (human)): 100%; kinase still bound, per cent of control (SRPK3 (human)): 90%; kinase still bound, per cent of control (ACVR1B (human)): 92%; kinase still bound, per cent of control (RIPK1 (human)): 81%; kinase still bound, per cent of control (NEK5 (human)): 90%; kinase still bound, per cent of control (MKNK2 (human)): 0.1%; kinase still bound, per cent of control (YSK4 (human)): 0.4%; kinase still bound, per cent of control (CAMK1D (human)): 96%; kinase still bound, per cent of control [1]: 100%; kinase still bound, per cent of control (GAK (human)): 80%
CCN1CCN(C(=O)Cc2ccc(Nc3ncc(F)c(Nc4ccc(C(=O)Nc5ccccc5Cl)cc4)n3)cc2)CC1	22%	56%	83%	77%	47%	92%	84%	84%	15%	18%	5%	13%	100%	73%	19%	34%	10%	19%	0.45%	64%	kinase still bound, per cent of control (NEK7 (human)): 2.6%; kinase still bound, per cent of control (YES1 (human)): 60%; kinase still bound, per cent of control (CSNK2A1 (human)): 18%; kinase still bound, per cent of control (PDPK1 (human)): 96%; kinase still bound, per cent of control (STK16 (human)): 1.6%; kinase still bound, per cent of control (NEK11 (human)): 100%; kinase still bound, per cent of control (RIPK2 (human)): 19%; kinase still bound, per cent of control (FLT1 (human)): 9.6%; kinase still bound, per cent of control (MST1R (human)): 100%; kinase still bound, per cent of control (FGFR1 (human)): 14%; kinase still bound, per cent of control (STK38L (human)): 60%; kinase still bound, per cent of control (SRPK3 (human)): 7.8%; kinase still bound, per cent of control (ACVR1B (human)): 45%; kinase still bound, per cent of control (RIPK1 (human)): 96%; kinase still bound, per cent of control (NEK5 (human)): 7.9%; kinase still bound, per cent of control (MKNK2 (human)): 5.6%; kinase still bound, per cent of control (YSK4 (human)): 7.2%; kinase still bound, per cent of control (CAMK1D (human)): 5.6%; kinase still bound, per cent of control [1]: 3%; kinase still bound, per cent of control (GAK (human)): 5.7%
